A compilation of properties of binary mixtures (doi:10.1021/acs.jced.0c00987)

Experiment: xn = mol fraction of the nth substance listed
Settings: 100 kPa

OCCO + CC[n+]1ccn(C)c1.O=S(=O)([O-])C(F)(F)F
x1 = 1
Settings	viscosity [mPa·s]
293.15 K	20.8
298.15 K	16.8
303.15 K	13.8
313.15 K	9.52

OCCO + CCOS(=O)(=O)[O-].CC[n+]1ccn(C)c1
x1 = 1
Settings	viscosity [mPa·s]
293.15 K	20.8
313.15 K	9.52

OCCN(CCO)CCO + CC[n+]1ccn(C)c1.O=S(=O)([O-])C(F)(F)F
Settings	electrical conductivity, 298.15 K [S/m]	electrical conductivity, 313.15 K [S/m]	viscosity, 293.15 K [mPa·s]	viscosity, 298.15 K [mPa·s]	viscosity, 303.15 K [mPa·s]	viscosity, 313.15 K [mPa·s]
x1 = 0.084	0.82	1.29	–	43.4	–	25.7
x1 = 0.167	0.72	–	55.7	45.1	–	–
x1 = 0.305	0.53	0.92	66.8	52.5	42	28.2
x1 = 0.426	–	0.63	86.2	–	51	32.8
x1 = 0.539	–	0.463	118.7	–	66.2	40.7
x1 = 0.641	0.137	0.296	165	118.4	–	50.9
x1 = 0.723	0.079	–	233.1	163.2	117.4	–
x1 = 0.802	0.041	0.102	336	228.6	160.6	86.3
x1 = 0.875	–	0.05	477	–	220.7	114.8
x1 = 0.94	0.0067	0.019	678	449	306.2	155
x1 = 0.969	0.0032	0.0092	793	523	355	177.4
x2 = 0.003	0.0004	0.0012	913	599	405	200.7
x2 = 0.006	0.0007	–	902	591	–	–
x2 = 0.017	0.0019	0.0054	848	557	377	188

CC[n+]1ccn(C)c1.O=S(=O)([O-])C(F)(F)F + OCCO
Settings	electrical conductivity, 298.15 K [S/m]	electrical conductivity, 313.15 K [S/m]	viscosity, 293.15 K [mPa·s]	viscosity, 298.15 K [mPa·s]	viscosity, 303.15 K [mPa·s]	viscosity, 313.15 K [mPa·s]
x1 = 0.001	–	0.0144	20.75	–	13.8	9.535
x1 = 0.002	0.0193	0.0335	20.6	16.7	–	9.46
x1 = 0.007	0.054	0.093	–	16.5	13.5	9.39
x1 = 0.013	0.082	0.137	20.1	16.3	–	9.28
x2 = 0.2	1.21	1.83	32.8	27.6	–	17.3
x2 = 0.413	1.44	2.17	21.9	18.6	15.9	11.9
x2 = 0.497	–	–	19.4	16.4	14	–
x2 = 0.498	1.51	2.28	–	–	–	–
x2 = 0.586	1.41	2.12	–	–	–	–
x2 = 0.587	–	–	17.6	14.8	12.7	9.5
x2 = 0.697	1.25	1.91	15.8	13.3	11.3	8.39
x2 = 0.808	0.95	–	15.7	13	11	–
x2 = 0.863	0.74	1.2	15.6	12.9	10.1	7.81
x2 = 0.907	0.52	0.87	17.1	14.1	11.7	8.32
x2 = 0.944	0.331	0.56	18.3	15	12.4	8.71
x2 = 0.974	0.161	0.276	–	15.9	13.1	9.1

CC[n+]1ccn(C)c1.O=S(=O)([O-])C(F)(F)F + OCC(O)CO
Settings	electrical conductivity, 298.15 K [S/m]	electrical conductivity, 313.15 K [S/m]	viscosity, 293.15 K [mPa·s]	viscosity, 298.15 K [mPa·s]	viscosity, 303.15 K [mPa·s]	viscosity, 313.15 K [mPa·s]
x1 = 0.002	0.0003	0.0008	–	887	588	280.1
x1 = 0.004	0.0006	0.0018	1333.2	862	572	272.9
x1 = 0.011	0.0014	0.0044	1257.8	815	543	259.2
x1 = 0.018	0.0025	–	1168.4	760	506	–
x2 = 0.199	0.85	1.35	–	40.1	33.2	23.6
x2 = 0.299	0.77	–	50.2	40.7	33.4	–
x2 = 0.401	–	1.16	57.2	–	36.6	24.9
x2 = 0.499	0.492	0.89	70.2	54.4	42.9	28
x2 = 0.605	0.316	0.6	–	73.4	56	34.7
x2 = 0.698	0.198	0.416	–	106.2	78.8	46.3
x2 = 0.805	0.089	0.21	261.5	182.8	130.6	71.6
x2 = 0.899	0.0255	0.066	545	366	251.6	128.5
x2 = 0.919	0.0172	0.0486	646	430	293.3	147.6
x2 = 0.962	0.0056	0.0174	–	633	–	206.8

CCOS(=O)(=O)[O-].CC[n+]1ccn(C)c1 + OCCN(CCO)CCO
x2 = 0
Settings	viscosity [mPa·s]
293.15 K	123.5
298.15 K	95.9
313.15 K	49.7

CCOS(=O)(=O)[O-].CC[n+]1ccn(C)c1 + OCC(O)CO
Settings	electrical conductivity, 298.15 K [S/m]	electrical conductivity, 313.15 K [S/m]	viscosity, 293.15 K [mPa·s]	viscosity, 298.15 K [mPa·s]	viscosity, 303.15 K [mPa·s]	viscosity, 313.15 K [mPa·s]
x1 = 0.002	0.0004	–	1381.9	892	590	–
x1 = 0.004	0.0006	–	1352.7	873	578	–
x1 = 0.012	0.002	0.0063	1239	804	535	255.6
x2 = 0	–	–	123.5	95.9	75.7	49.7
x2 = 0.123	–	0.72	114.1	–	70.7	46.7
x2 = 0.264	0.386	0.71	104.7	81.9	–	43.1
x2 = 0.39	0.365	0.67	101.5	79.1	62.6	41.2
x2 = 0.5	0.313	0.6	–	81.2	–	41.2
x2 = 0.601	–	0.496	121	–	70.4	44.1
x2 = 0.703	0.173	0.371	162.3	119.2	89.3	53.3
x2 = 0.794	0.089	0.209	248.6	176.4	128	72.1
x2 = 0.901	0.026	0.071	533	360	249.8	129.3
x2 = 0.958	0.0075	–	922	604	406	–
x2 = 0.98	0.0033	0.0102	1138.7	742	–	237.9

OCCN(CCO)CCO + CCOS(=O)(=O)[O-].CC[n+]1ccn(C)c1
Settings	electrical conductivity, 298.15 K [S/m]	electrical conductivity, 313.15 K [S/m]	viscosity, 293.15 K [mPa·s]	viscosity, 298.15 K [mPa·s]	viscosity, 303.15 K [mPa·s]	viscosity, 313.15 K [mPa·s]
x1 = 0.153	0.356	–	–	97.8	77.1	–
x1 = 0.285	0.284	0.53	121.9	94.1	74	48.1
x1 = 0.52	0.173	0.349	137.4	103.5	79.5	49.8
x1 = 0.617	0.126	0.266	–	117.8	–	54.3
x1 = 0.703	0.085	0.189	209.4	151.8	112.4	66
x1 = 0.787	–	0.108	286.6	–	146.5	82.5
x1 = 0.866	0.0219	0.055	416	287.3	–	110.1
x1 = 0.929	–	0.0234	583	–	–	143.5
x1 = 0.967	–	0.0103	–	–	–	167.7
x2 = 0.003	0.0004	0.0012	871	579	394	197.1
x2 = 0.006	0.0008	0.0021	857	570	–	195.3
x2 = 0.019	0.0021	0.0058	792	528	361	182.4
